By efflux ratio is commonly meant a quotient of directional permeabilities that is used to spot active efflux. A word on the IC50: it is the concentration needed to halve the response being measured. A low value points to inhibition by little substance. Broadly, the solubility (kinetic) is the concentration staying in solution when a stock, usually in DMSO, is diluted into the medium. One may read the AUC(0-inf) as the area under the concentration-time curve extrapolated to infinity. A low value points to low exposure. A word on the AUC(0-t): it is the area under the concentration-time curve up to a stated or last time point. By Cmax is commonly meant the maximum level reached in the sampled fluid or tissue. As usually defined, the half-life is how long it takes for the measured level to halve. Higher therefore signals slow decline. By Tmax is commonly meant the time at which the peak concentration occurs.

The subject of data set [1] is P-gp (MDR1). Nature of the data set: MDCK-MDR1 efflux assay, Experimental Procedure 1. The format is in vitro ADME. To be noted: dog, Table 3A, pH 7.4. As for the experimental part:
MDCK-MDR1 cells grown in tissue culture flasks were trypsinized, suspended in medium, and the suspensions were applied to wells of a Millipore 96 well plate. The cells were allowed to grow and differentiate for five days, feeding at 2-day intervals. For Apical to Basolateral (A→B) permeability, the test article was added to the apical (A) side and amount of permeation was determined on the basolateral (B) side; for Basolateral to Apical (B→A) permeability, the test article was added to the B side and the amount of permeation was determined on the A side. […] Following centrifugation, the supernatant for donor and receiver side samples were analyzed by LC-MS/MS. Data was expressed as permeability (Papp):Papp=(dQ/dt)/(C0A) where dQ/dt is rate of permeation, C0 is initial concentration of test article, and A is the area of monolayer. In bidirectional permeability studies, the Efflux Ratio (Re) was calculated: [formula]

The target of a further data set is ROCK1 (Homo sapiens (Human), UniProt Q13464). Nature of the data set: ROCK1 inhibition assay (HotSpot kit, 33P-ATP). The format is biochemical. The settings on record: 10 μM ATP.
For the next data set, the target named is ROCK2 (Homo sapiens (Human), UniProt O75116). Nature of the data set: ROCK2 inhibition assay (HotSpot kit, 33P-ATP). In kind it is biochemical. The settings on record: 10 μM ATP.
For the next data set, the target named is PRKX (Homo sapiens (Human), UniProt P51817). Nature of the data set: PRKX inhibition assay (HotSpot kit, 33P-ATP). In kind it is biochemical. To be noted: Table 2B; 10 μM ATP; Compound 1 is geometric mean of multiple experiments. As for the experimental part: (§1) Compounds as a powder were dissolved in dimethyl sulfoxide to make a 10 mM stock. […] The HotSpot kit employing ^33P-ATP was used with reactions conducted at 10 μM ATP for each tested enzyme. The percent activity relative to DMSO controls for each concentration was then fitted to a curve using GraphPad Prism to determine the IC50. […] Each experiment was run in the same lab with this procedure.

A further data set has as its target PKA (Homo sapiens (Human), UniProt P17612). Nature of the data set: PKA inhibition assay (HotSpot kit, 33P-ATP). The format is biochemical. To be noted: Table 2B; 10 μM ATP; Compound 1 is geometric mean of multiple experiments. As for the experimental part: as §1
Data set [2] relates to P-gp (MDR1). Nature of the data set: MDCK-MDR1 efflux assay, Experimental Procedure 2. The format is in vitro ADME. The settings on record: dog, Table 3B, pH 7.4.
Data set [3] in a line: Kinetic solubility in PBS pH 7.4. In kind it is physicochemical. The settings on record: aqueous buffer, kinetic from dmso stock, PBS pH 7.4, 25° C. As for the experimental part:
The assay was performed in duplicate.

Data set [4] is described as follows: 24 hour mouse pharmacokinetics. The format is in vivo, B6SJLF1/J mice. To be noted: for AUC(0-inf) / AUC(0-t) / Cmax / half-life / Tmax: B6SJLF1/J, plasma. As for the experimental part: Groups 2, 3, 4, 6, and 8: Test article was dissolved in a minimal amount of DMSO (Groups 2, 4, 6, 8: 40-50 μL, Group 3: 100 μL), 0.5% methylcellulose was added to final volume, then solution was sonicated for 2 minutes.
Group 7: Test article was dissolved in 100 μL DMSO, saline was added to final volume, then solution was sonicated for 2 minutes.
Groups 1, 5: The test article was administered as a single dose via slow bolus intravenous administration into a lateral tail vein, with a 27G needle.
Groups 2, 4, 6, 7, 8: The test article was administered as a single dose directly to the stomach by oral gavage.
Group 3: The test article was administered as a single dose in two parts with an approximate 1-2-minute rest between due to volume administered.
Approximately 150 μL of blood was collected by tail nick for the first time point and then the maximal volume by cardiac stick for the second, terminal time point in each mouse. The plasma was spun and separated within 30 minutes of collection and stored frozen at −20° C. until shipment.
Prior to the terminal blood collection, CSF was collected. […] The resulting data is shown in Tables 13, 14, 15, 16 and 17 below.

Data set [5] is described as follows: 24 hour rat pharmacokinetics. In kind it is in vivo, Sprague-dawley rats. To be noted: male.
The conditions of data set [6]: mouse, in vivo, po, 20 mg/kg.
The mark [7] stands for this setting: Table 2B, Compound 1 is geometric mean of multiple experiments.
The mark [8] stands for this setting: Sprague-Dawley, in vivo, IV 3 mg/kg.
[9] abbreviates: Sprague-Dawley, in vivo, PO 10 mg/kg.

≈ marks a conversion by molar mass, not a printed value.

Sequence of PRKX (P51817 whole entry): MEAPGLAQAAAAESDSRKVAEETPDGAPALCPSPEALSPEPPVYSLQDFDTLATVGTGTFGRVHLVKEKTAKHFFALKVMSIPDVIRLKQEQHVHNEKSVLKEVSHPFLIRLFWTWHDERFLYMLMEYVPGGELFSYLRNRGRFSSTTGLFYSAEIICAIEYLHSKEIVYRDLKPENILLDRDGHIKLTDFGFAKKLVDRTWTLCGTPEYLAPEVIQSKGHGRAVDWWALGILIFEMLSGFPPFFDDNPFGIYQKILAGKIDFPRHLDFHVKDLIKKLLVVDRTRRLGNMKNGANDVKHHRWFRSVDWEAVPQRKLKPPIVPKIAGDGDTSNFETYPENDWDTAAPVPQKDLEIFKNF
Sequence of ROCK2 (O75116 whole entry): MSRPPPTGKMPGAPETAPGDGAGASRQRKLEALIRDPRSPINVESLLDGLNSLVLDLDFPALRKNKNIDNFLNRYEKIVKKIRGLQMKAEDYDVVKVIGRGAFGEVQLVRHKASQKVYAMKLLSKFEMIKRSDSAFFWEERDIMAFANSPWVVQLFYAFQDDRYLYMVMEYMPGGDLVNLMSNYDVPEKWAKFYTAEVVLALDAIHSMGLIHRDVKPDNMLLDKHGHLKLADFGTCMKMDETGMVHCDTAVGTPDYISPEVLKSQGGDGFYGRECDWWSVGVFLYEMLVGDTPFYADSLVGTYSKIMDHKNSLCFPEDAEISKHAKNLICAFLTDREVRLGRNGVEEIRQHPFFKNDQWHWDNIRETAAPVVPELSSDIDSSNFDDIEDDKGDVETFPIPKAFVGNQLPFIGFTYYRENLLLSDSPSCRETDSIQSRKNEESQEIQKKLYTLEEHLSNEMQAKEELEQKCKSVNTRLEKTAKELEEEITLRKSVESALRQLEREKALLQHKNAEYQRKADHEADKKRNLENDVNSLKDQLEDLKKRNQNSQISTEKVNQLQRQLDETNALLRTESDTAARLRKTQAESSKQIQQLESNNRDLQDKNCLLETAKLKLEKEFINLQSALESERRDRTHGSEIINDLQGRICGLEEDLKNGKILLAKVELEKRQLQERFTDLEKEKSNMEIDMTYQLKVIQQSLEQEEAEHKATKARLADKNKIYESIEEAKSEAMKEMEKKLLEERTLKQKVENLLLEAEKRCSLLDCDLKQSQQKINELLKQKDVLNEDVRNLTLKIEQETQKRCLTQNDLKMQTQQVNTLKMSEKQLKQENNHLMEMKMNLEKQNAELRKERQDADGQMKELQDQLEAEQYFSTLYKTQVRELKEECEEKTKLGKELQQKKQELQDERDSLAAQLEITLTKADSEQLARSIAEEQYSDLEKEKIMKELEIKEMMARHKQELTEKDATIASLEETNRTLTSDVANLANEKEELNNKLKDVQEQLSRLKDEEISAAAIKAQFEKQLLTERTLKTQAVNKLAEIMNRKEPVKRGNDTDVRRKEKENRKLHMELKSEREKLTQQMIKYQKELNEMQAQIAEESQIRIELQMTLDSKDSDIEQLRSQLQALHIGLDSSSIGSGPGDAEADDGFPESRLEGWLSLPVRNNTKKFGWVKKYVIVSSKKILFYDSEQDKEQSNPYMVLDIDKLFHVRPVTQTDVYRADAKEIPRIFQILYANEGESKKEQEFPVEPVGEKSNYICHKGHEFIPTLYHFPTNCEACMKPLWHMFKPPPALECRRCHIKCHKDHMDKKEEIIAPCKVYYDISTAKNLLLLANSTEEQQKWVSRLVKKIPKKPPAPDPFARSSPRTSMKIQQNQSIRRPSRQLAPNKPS
Sequence of ROCK1 (Q13464 whole entry): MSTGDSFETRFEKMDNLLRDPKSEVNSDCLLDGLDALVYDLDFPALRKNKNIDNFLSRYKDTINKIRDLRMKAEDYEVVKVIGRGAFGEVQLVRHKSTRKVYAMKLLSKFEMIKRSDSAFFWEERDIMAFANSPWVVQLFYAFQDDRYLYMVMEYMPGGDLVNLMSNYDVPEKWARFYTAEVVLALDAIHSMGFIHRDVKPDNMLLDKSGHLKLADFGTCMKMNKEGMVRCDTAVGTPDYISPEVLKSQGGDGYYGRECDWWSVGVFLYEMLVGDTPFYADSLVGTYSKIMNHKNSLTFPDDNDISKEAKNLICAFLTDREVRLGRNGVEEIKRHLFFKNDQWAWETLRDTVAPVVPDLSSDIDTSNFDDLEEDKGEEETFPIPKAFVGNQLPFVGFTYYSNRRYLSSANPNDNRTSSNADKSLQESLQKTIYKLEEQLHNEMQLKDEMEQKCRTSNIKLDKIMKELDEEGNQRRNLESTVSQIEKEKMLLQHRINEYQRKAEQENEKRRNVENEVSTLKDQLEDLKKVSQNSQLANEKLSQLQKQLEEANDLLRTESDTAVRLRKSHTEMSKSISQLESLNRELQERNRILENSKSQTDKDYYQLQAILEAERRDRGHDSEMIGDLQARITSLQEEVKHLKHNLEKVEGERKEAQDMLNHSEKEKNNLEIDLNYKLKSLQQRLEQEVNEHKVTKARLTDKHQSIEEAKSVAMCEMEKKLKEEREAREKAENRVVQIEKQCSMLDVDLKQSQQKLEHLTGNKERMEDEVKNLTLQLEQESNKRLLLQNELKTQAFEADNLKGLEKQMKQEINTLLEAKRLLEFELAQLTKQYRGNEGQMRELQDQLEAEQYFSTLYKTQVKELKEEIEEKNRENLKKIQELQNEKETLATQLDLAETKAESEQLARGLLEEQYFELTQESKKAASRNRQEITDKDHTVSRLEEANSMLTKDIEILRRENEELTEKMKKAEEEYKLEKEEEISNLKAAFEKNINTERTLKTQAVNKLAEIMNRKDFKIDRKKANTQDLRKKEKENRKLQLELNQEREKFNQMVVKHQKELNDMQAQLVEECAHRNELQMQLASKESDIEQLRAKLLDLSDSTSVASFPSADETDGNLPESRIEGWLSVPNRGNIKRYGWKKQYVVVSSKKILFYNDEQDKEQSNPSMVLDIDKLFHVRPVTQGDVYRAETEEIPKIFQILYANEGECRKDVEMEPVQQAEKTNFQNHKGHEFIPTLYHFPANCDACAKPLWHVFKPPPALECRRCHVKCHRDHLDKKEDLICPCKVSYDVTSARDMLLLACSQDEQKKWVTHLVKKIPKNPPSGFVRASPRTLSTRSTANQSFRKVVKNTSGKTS

In the case of `C[C@H]1O[C@@H](O[C@H]2[C@@H](O)C[C@H](O[C@H]3[C@@H](O)C[C@H](O[C@H]4CC[C@@]5(C)[C@H](CC[C@@H]6[C@@H]5C[C@@H](O)[C@]5(C)[C@@H](C7=CC(=O)OC7)CC[C@]65O)C4)O[C@@H]3C)O[C@@H]2C)C[C@H](O)[C@@H]1O` [Digoxin, reference compound], the efflux ratio at 2 h in the data set on P-gp (MDR1) [1] turned out to be 28.4.

With `COc1cccc(CNC(=O)c2cc3ccc(-c4cn[nH]c4)nc3[nH]2)c1` [Comparator 6, N-(3-methoxybenzyl)-6-(1H-pyrazol-4-yl)-1H-pyrrolo[2,3-b]pyridine-2-carboxamide, reference compound], the IC50 against ROCK1 (setting [7]) stood at 10.2 nM; against ROCK2 (setting [7]) it was 0.96 nM; on PRKX, 165 nM.

Regarding `O=C(NCc1ccccc1F)c1cc2ccc(-c3cn[nH]c3C(F)(F)F)nc2[nH]1` [Compound 11, N-[(2-Fluorophenyl)methyl]-6-[3-(trifluoromethyl)-2H-pyrazol-4-yl]-1H-pyrrolo[2,3-b]pyridine-2-carboxamide], the figures for the IC50 against ROCK1 (setting [7]) and against ROCK2 (setting [7]) were above 1000 nM and 1370 nM, respectively.

Consider `Cc1[nH]ncc1-c1ccc2cc(C(=O)NCc3c(Cl)cccc3OC3COC3)[nH]c2n1` [Comparator 3, N-(2-chloro-6-(oxetan-3-yloxy)benzyl)-6-(5-methyl-1H-pyrazol-4-yl)-1H-pyrrolo[2,3-b]pyridine-2-carboxamide, reference compound], for which the IC50 at ROCK1 (Table 2A) is above 1000 nM; on ROCK2 (Table 2A) it was 587 nM; at PRKX, 376 nM; on PKA it was 1400 nM. Further, the efflux ratio at 2 h with P-gp (MDR1) [1] is 256.

Regarding `Cn1c(C(=O)NCc2ccccc2F)cc2ccc(-c3cn[nH]c3)nc21` [Compound 1, N-(2-fluorobenzyl)-1-methyl-6-(1H-pyrazol-4-yl)-1H-pyrrolo[2,3-b]pyridine-2-carboxamide], the IC50 came out at 16.4 nM on ROCK1 (Table 2A); 30.3 nM on ROCK1 (setting [7]); 2.3 nM on ROCK2 (Table 2A); 2.7 nM at ROCK2 (setting [7]); 31.4 nM against PRKX; 238 nM against PKA. In the data set on P-gp (MDR1) [1], the efflux ratio at 2 h was 1.46. Besides, in the data set with P-gp (MDR1) [2], the efflux ratio at 2 h, 1 µM was found to be 0.8. For the same molecule, the solubility (kinetic) at 2 h in data set [3] turned out to be 0.64 µM (≈ 0.224 µg/mL). Further, the AUC(0-inf) in data set [4] (IV 3 mg/kg, male) came out at 10200 ng·h/mL; in data set [4] (PO 10 mg/kg, male), 5750 ng·h/mL; in data set [4] (PO 100 mg/kg, male) it was 46000 ng·h/mL; in data set [5] (setting [8]), 4650 ng·h/mL; in [5] (Sprague-Dawley, plasma, PO 10 mg/kg), 2660 ng·h/mL. The AUC(0-t) was 10100 ng·h/mL in data set [4] (IV 3 mg/kg, male); 5670 ng·h/mL in [4] (PO 10 mg/kg, female); 5350 ng·h/mL in data set [4] (PO 10 mg/kg, male); 44100 ng·h/mL in [4] (PO 100 mg/kg, male); 4620 ng·h/mL in data set [5] (setting [8]); 2610 ng·h/mL in [5] (setting [9]). Besides, the Cmax was 12200 ng/mL in data set [4] (IV 3 mg/kg, male); 1110 ng/mL in data set [4] (PO 10 mg/kg, female); 1040 ng/mL in data set [4] (PO 10 mg/kg, male); 4070 ng/mL in data set [4] (PO 100 mg/kg, male); 5540 ng/mL in data set [5] (setting [8]); 409 ng/mL in [5] (setting [9]). Also, the half-life in data set [4] (IV 3 mg/kg, male) is 0.987 h; in [4] (PO 10 mg/kg, male), 2.72 h; in data set [4] (PO 100 mg/kg, male) it was 4.47 h; in data set [5] (setting [8]), 5.33 h; in data set [5] (setting [9]), 3.67 h. In addition, the time to peak (Tmax) was 1 h in [4] (PO 10 mg/kg, female); 1 h in data set [4] (PO 10 mg/kg, male); 8 h in data set [4] (PO 100 mg/kg, male); 2.67 h in data set [5] (setting [9]). The AUC0-t/D was 3380 (h*ng/mL)/(mg/kg) in data set [4] (IV 3 mg/kg, male); 567 (h*ng/mL)/(mg/kg) in [4] (PO 10 mg/kg, female); 535 (h*ng/mL)/(mg/kg) in [4] (PO 10 mg/kg, male); 441 (h*ng/mL)/(mg/kg) in data set [4] (PO 100 mg/kg, male); 1541 (h*ng/mL)/(mg/kg) in [5] (IV 3 mg/kg); 261 (h*ng/mL)/(mg/kg) in data set [5] (PO 10 mg/kg). Further, the Tlast in data set [4] (IV 3 mg/kg, male) is listed as 8 h; in data set [4] (PO 10 mg/kg, female) it was 24 h; in data set [4] (PO 10 mg/kg, male), 12 h; in data set [4] (PO 100 mg/kg, male), 24 h; in data set [5] (IV 3 mg/kg), 24 h; in data set [5] (PO 10 mg/kg), 24 h. For the same molecule, the “Ratio to 10 mg/kg Dose Level, AUC0-t” value in data set [4] (PO 100 mg/kg vs 10 mg/kg, male) was determined as 8.24. In addition, the “Ratio to 10 mg/kg Dose Level, AUC0-∞” value in data set [4] (PO 100 mg/kg vs 10 mg/kg, male) amounted to 8.00. Besides, the “Ratio to 10 mg/kg Dose Level, Cmax” value in data set [4] (PO 100 mg/kg vs 10 mg/kg, male) is reported as 3.91. In addition, in data set [6], the “mortality and adverse events” value was “no animals died or had adverse events”. Further, the “plasma level in 24 hours” value in data set [6] is recorded as “below the detection limit”.

As for `Cc1[nH]ncc1-c1ccc2cc(C(=O)NCc3c(Cl)cccc3C3(O)CC3)[nH]c2n1` [Compound 6, N-(2-chloro-6-(1-hydroxycyclopropyl)benzyl)-6-(5-methyl-1H-pyrazol-4-yl)-1H-pyrrolo[2,3-b]pyridine-2-carboxamide], the efflux ratio at 2 h with P-gp (MDR1) [1] was 133.

In the case of `CC(=O)[C@H]1CC[C@H]2[C@@H]3CCC4=CC(=O)CC[C@]4(C)[C@H]3CC[C@]12C` [Progesterone, reference compound], the kinetic solubility at 2 h in data set [3] came to 13.3 µM (≈ 4.19 µg/mL).

These data come from patent publication US20240246972A1, “AZAINDOLE ROCK INHIBITORS” (priority 2022, published 2024).
